Test system: adult articular cartilage
Test: effect on cartilage of sesamoid bones, release of proteoglycan and COMP fragments
Type: cell-based, bovine
Conditions: 10 min treatment at 37° C., undiluted or diluted 1:10, 1:100, 1:1000 with Ringer's solution; compared with Ringer's solution control
Procedure: In an unpublished study, the effects of povidone iodine in non-liposomal form was studied on adult articular cartilage.
Sesamoid bones were dissected within 2-4 h after slaughter from bovine metacarpo-phalangeal joints of adult animals under aseptic conditions. The cartilage from sesamoid bones of a particular animal is uniform with respect to glycosaminoglycan synthesis, glycosaminoglycan content, and proteoglycan composition. Each experimental group consisted of eight sesamoid bones from the same animal. The sesamoid bones were washed in 10 ml cold sterile Ringer's solution for 10 min, incubated respectively in 10 ml of sterile Ringer's solution (control), PVP-iodine, or PVP-iodine dilutions with Ringer's solution (1:10, 1:100, or 1:1000) at 37° C. for 10 min in a humidified atmosphere of 5% CO2 in air, and subsequently washed again for 5×5 min in 10 ml Ringer's solution in each case. […] The culture media of sesamoid bones and extracts of cartilage plugs were used for the quantitative and qualitative characterization of proteoglycans and COMP (cartilage oligomeric matrix protein), because an increased release of fragments of these cartilage matrix constituents equals to a catabolic pathway.

poly(1-vinyl-2-pyrrolidin-2-one)-iodine complex [PVP-iodine]
proteolytic fragmentation of cartilage matrix constituents (proteoglycans, COMP): no increased proteolytic fragmentation

Source: patent US7468194B1, “Preparations for the application of anti-inflammatory agents” (Euro-Celtique, S.A., priority 1999, dated 2008)
